Test results reported in patent publication US5595883A, “Method of diagnosing alzheimer's disease by measuring acetylcholinesterase activity in ocular fluid” (priority 1990, dated 1997).

System: AChE
Assay: Cholinesterase activity of human ocular fluid (micro Ellman assay, acetylthiocholine substrate), inhibition by BW 284c51
Assay type: biochemical
Settings: BW 284c51 1.5 μM, acetylthiocholine 1.0 mM, pH 7.0, 25° C.
Experimental: Cholinesterase activities were measured by a microversion of the method of Ellman et al, (1961) supra, using microtitre plates. Acetylthiocholine was used as substrate at a concentration of 1.0 mM, which is optimal for AChE, but suboptimal for BuChE. The assay was performed in 0.05M Na/K phosphate buffer, pH 7.0 at 25° C., containing 3 mM 5,5'-dithio-bis-(2-nitrobenzoate), in a total volume of 100 μL. The rate of hydrolysis of acetylthiocholine was monitored by measurement of absorbances at 410 nm, using a Titertek multiscan microplate reader. A calibration curve was constructed using purified electric eel AChE (Sigma). AChE and BuChE activities were distinguished by use of the specific AChE inhibitor 1,5-bis-(-4-allyldimethylammoniumphenyl)pentan-3-one dibromide (BW 284c51) (1.5 μM).

C=CC[N+](C)(C)c1ccc(CCC(=O)CCc2ccc([N+](C)(C)CC=C)cc2)cc1 [BW 284c51, 1,5-bis-(-4-allyldimethylammoniumphenyl)pentan-3-one dibromide]
inhibition of cholinesterase activity of ocular fluid: Most of this activity was inhibited
